Assay results: US20260022143A1, “Cyclic Peptide Inhibitors of IL-23” (JANSSEN PHARMACEUTICA NV, priority 2022, published 2026)
Positions of bridges follow the written chain, without caps; N, C: chain ends. Non-standard residues stand in square brackets, D forms with d. Residues, ends and D or L forms follow the SMILES beside them. *: point of attachment. Me3N+(CH2)2O(CH2)2O(CH2)2CO = C[N+](C)(C)CCOCCOCCC(=O)*; CH2CH2OCH2CH2OCH2CH2NMe3+ = C[N+](C)(C)CCOCCOCC*; Trp(7-Me) = Cc1cccc2c(C[C@H](N)C(=O)O)c[nH]c12; dLys(Me3) = C[N+](C)(C)CCCC[C@@H](N)C(=O)O; 3Pal(5-Me) = Cc1cncc(C[C@H](N)C(=O)O)c1; 2Nal = N[C@@H](Cc1ccc2ccccc2c1)C(=O)O; AEF = NCCOc1ccc(C[C@H](N)C(=O)O)cc1; 3Pal = N[C@@H](Cc1cccnc1)C(=O)O; Lys(Me) = CNCCCC[C@H](N)C(=O)O; Pen = CC(C)(S)[C@H](N)C(=O)O; Thp = NC1(C(=O)O)CCOCC1; X3 = C[N+](C)(C)CCCCC*; Sar = CNCC(=O)O

Experiments:
[1] = Exposed Polar Surface Area (EPSA); format: physicochemical; details: SFC on Chirex 3014 column; sample 1 mM DMSO stock; read-out: EPSA
Procedure, shortened: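 Retention-based polarity: supercritical CO2 with 20 mM ammonium formate in MeOH (5–60%, 20%/min), Chirex 3014 column, 35 °C. Calibrated against 8 standards to give EPSA (Å^2); each sample measured twice.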

[2] = target: T1, IL-23R (Homo sapiens, UniProt Q5VWK5); experiment: IL23R Reporter Assay; format: cell-based; details: HEK293 cells containing IL-23R, IL-12RP1 and STAT-inducible firefly luciferase reporter; 10 ng/mL IL-23 (EC90); 5 h at 37° C.; read-out: IL23R Reporter Assay
T1 construct: host or cells: HEK293
T1 sequence (Q5VWK5 24-629): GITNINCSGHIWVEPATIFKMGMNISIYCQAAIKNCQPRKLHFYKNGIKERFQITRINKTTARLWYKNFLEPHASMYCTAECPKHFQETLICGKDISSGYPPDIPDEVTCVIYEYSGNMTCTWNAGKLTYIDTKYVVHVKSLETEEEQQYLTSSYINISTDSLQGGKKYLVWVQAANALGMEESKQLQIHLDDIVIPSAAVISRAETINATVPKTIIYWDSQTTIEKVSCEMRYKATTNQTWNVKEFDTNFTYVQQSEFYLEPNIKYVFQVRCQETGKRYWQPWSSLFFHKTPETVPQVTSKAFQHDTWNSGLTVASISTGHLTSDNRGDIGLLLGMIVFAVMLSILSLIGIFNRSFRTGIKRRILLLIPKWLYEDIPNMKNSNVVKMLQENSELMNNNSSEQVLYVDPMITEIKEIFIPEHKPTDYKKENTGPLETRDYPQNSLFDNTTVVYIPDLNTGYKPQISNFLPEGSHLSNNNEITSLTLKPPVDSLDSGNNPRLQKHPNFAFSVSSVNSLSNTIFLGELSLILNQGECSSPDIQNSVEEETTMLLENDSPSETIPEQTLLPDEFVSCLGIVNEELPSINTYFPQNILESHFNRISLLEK

CC(=O)NCCCC[C@@H]1NC(=O)[C@H](Cc2c[nH]c3c(C)cccc23)NC(=O)[C@H]([C@@H](C)O)NC(=O)[C@H](CC(N)=O)NC(=O)[C@@H](NC(=O)[C@@H](CCCC[N+](C)(C)C)NC(C)=O)C(C)(C)SSC(C)(C)[C@@H](C(=O)N[C@@H](Cc2ccc(OCCCCC[N+](C)(C)C)cc2)C(=O)N[C@@H](Cc2ccc3ccccc3c2)C(=O)NC2(C(=O)N[C@@H](CCC(=O)O)C(=O)N[C@@H](CC(N)=O)C(=O)N[C@@H](Cc3cncc(C)c3)C(=O)N(C)CC(N)=O)CCOCC2)NC1=O [compound 534, MeCO-k(Me)3-Pen(3)-N-T-7MeW-K(Ac)-Pen(3)-TMAPF-2Nal-THP-E-N-5MePyridinAla-Sar-CONH2] (Ac-[dLys(Me3)][Pen]NT[Trp(7-Me)]K(Ac)[Pen]Y(X3)[2Nal][Thp]EN[3Pal(5-Me)][Sar]-NH2; disulfide 2-7)
EPSA [1]: 172 A^2 | IC50 [2]: 2.1 nM

CC(=O)NCCCC[C@@H]1NC(=O)[C@H](Cc2c[nH]c3c(C)cccc23)NC(=O)[C@H]([C@@H](C)O)NC(=O)[C@H](CC(N)=O)NC(=O)[C@@H](NC(C)=O)C(C)(C)SSC(C)(C)[C@@H](C(=O)N[C@@H](Cc2ccc(OCCCCC[N+](C)(C)C)cc2)C(=O)N[C@@H](Cc2ccc3ccccc3c2)C(=O)NC2(C(=O)N[C@@H](CCCCNC(C)=O)C(=O)N[C@@H](CC(N)=O)C(=O)N[C@@H](Cc3cccnc3)C(=O)N(C)CC(N)=O)CCCCC2)NC1=O [compound 538, MeCO-Pen(3)-N-T-7MeW-K(Ac)-Pen(3)-TMAPF-2Nal-Achx-K(Ac)-N-3Pya-Sar-CONH2]
EPSA [1]: 163 A^2 | IC50 [2]: 3.5 nM

CC(=O)NCCCC[C@@H]1NC(=O)[C@H](Cc2c[nH]c3c(C)cccc23)NC(=O)[C@H]([C@@H](C)O)NC(=O)[C@H](CC(N)=O)NC(=O)[C@@H](NC(=O)[C@@H](CCCNC(=N)N)NC(=O)CCOCCOCC[N+](C)(C)C)C(C)(C)SSC(C)(C)[C@@H](C(=O)N[C@@H](Cc2ccc(OCCN)cc2)C(=O)N[C@@H](Cc2ccc3ccccc3c2)C(=O)NC2(C(=O)N[C@@H](CCCCNC(C)=O)C(=O)N[C@@H](CC(N)=O)C(=O)N[C@@H](Cc3cncc(C)c3)C(=O)N(C)CC(N)=O)CCOCC2)NC1=O [compound 541, cPEG3aCO-r-Pen(3)-N-T-7MeW-K(Ac)-Pen(3)-AEF-2Nal-THP-K(Ac)-N-5MePyridinAla-Sar-CONH2] ({Me3N+(CH2)2O(CH2)2O(CH2)2CO}-[dR][Pen]NT[Trp(7-Me)]K(Ac)[Pen][AEF][2Nal][Thp]K(Ac)N[3Pal(5-Me)][Sar]-NH2; disulfide 2-7)
EPSA [1]: 187 A^2 | IC50 [2]: 0.97 nM

CC(=O)NCCCC[C@@H]1NC(=O)[C@H](Cc2c[nH]c3c(C)cccc23)NC(=O)[C@H]([C@@H](C)O)NC(=O)[C@H](CC(N)=O)NC(=O)[C@@H](NC(=O)[C@@H](CCCNC(=N)N)NC(C)=O)C(C)(C)SSC(C)(C)[C@@H](C(=O)N[C@@H](Cc2ccc(OCCCCC[N+](C)(C)C)cc2)C(=O)N[C@@H](Cc2ccc3ccccc3c2)C(=O)NC2(C(=O)N[C@@H](CCC(=O)O)C(=O)N[C@@H](CC(N)=O)C(=O)N[C@@H](Cc3cncc(C)c3)C(=O)N(C)CC(N)=O)CCOCC2)NC1=O [compound 543, MeCO-r-Pen(3)-N-T-7MeW-K(Ac)-Pen(3)-TMAPF-2Nal-THP-E-N-5MePyridinAla-Sar-CONH2] (Ac-[dR][Pen]NT[Trp(7-Me)]K(Ac)[Pen]Y(X3)[2Nal][Thp]EN[3Pal(5-Me)][Sar]-NH2; disulfide 2-7)
EPSA [1]: 179 A^2 | IC50 [2]: 2 nM

CC(=O)N(C)CCCC[C@H](NC(=O)C1(NC(=O)[C@H](Cc2ccc3ccccc3c2)NC(=O)[C@H](Cc2ccc(OCCOCCOCC[N+](C)(C)C)cc2)NC(=O)[C@H]2NC(=O)[C@H](CCCCNC(=O)CCOCCOCC[N+](C)(C)C)NC(=O)[C@H](Cc3c[nH]c4c(C)cccc34)NC(=O)[C@H]([C@@H](C)O)NC(=O)[C@H](CC(=O)N(C)C)NC(=O)[C@@H](NC(=O)CCOCCOCC[N+](C)(C)C)C(C)(C)SSC2(C)C)CCOCC1)C(=O)N[C@@H](CC(N)=O)C(=O)N[C@@H](Cc1cccnc1)C(=O)N(C)CC(=O)N(C)C [compound 544, cPEG3aCO-Pen(3)-N(N(Me)2)-T-7MeW-K(cPEG3aCO)-Pen(3)-APEG3F-2Nal-THP-K(NMeAc)-N-3Pya-Sar-CON(Me)2] ({Me3N+(CH2)2O(CH2)2O(CH2)2CO}-[Pen]D(NMe2)T[Trp(7-Me)]K(Me3N+(CH2)2O(CH2)2O(CH2)2CO)[Pen]Y(CH2CH2OCH2CH2OCH2CH2NMe3+)[2Nal][Thp][Lys(Me)](Ac)N[3Pal][Sar]-NMe2; disulfide 1-6)
EPSA [1]: 157 A^2 | IC50 [2]: 2 nM

CC(=O)NCCCC[C@@H]1NC(=O)[C@H](Cc2c[nH]c3c(C)cccc23)NC(=O)[C@H]([C@@H](C)O)NC(=O)[C@H](CC(N)=O)NC(=O)[C@@H](NC(C)=O)C(C)(C)SSC(C)(C)[C@@H](C(=O)N[C@@H](Cc2ccc(OCCCCC[N+](C)(C)C)cc2)C(=O)N[C@@H](Cc2ccc3ccccc3c2)C(=O)NC2(C(=O)N[C@@H](CCCCNC(=O)CCCCCc3ccc(I)cc3)C(=O)N[C@@H](CC(N)=O)C(=O)N[C@@H](Cc3cccnc3)C(=O)N(C)CC(N)=O)CCOCC2)NC1=O [compound 546, MeCO-Pen(3)-N-T-7MeW-K(Ac)-Pen(3)-TMAPF-2Nal-THP-K(IPB)-N-3Pya-Sar-CONH2]
EPSA [1]: 168 A^2 | IC50 [2]: 7.2 nM

CC(=O)NCCCC[C@@H]1NC(=O)[C@H](Cc2c[nH]c3c(C)cccc23)NC(=O)[C@H]([C@@H](C)O)NC(=O)[C@H](CC(N)=O)NC(=O)[C@@H](NC(=O)CCCc2ccc(I)cc2)C(C)(C)SSC(C)(C)[C@@H](C(=O)N[C@@H](Cc2ccc(OCCCCC[N+](C)(C)C)cc2)C(=O)N[C@@H](Cc2ccc3ccccc3c2)C(=O)NC2(C(=O)N[C@@H](CCCCNC(C)=O)C(=O)N[C@@H](CC(N)=O)C(=O)N[C@@H](Cc3cccnc3)C(=O)N(C)CC(N)=O)CCOCC2)NC1=O [compound 547, IPBCO-Pen(3)-N-T-7MeW-K(Ac)-Pen(3)-TMAPF-2Nal-THP-K(Ac)-N-3Pya-Sar-CONH2]
EPSA [1]: 168 A^2 | IC50 [2]: 4.6 nM

CC(=O)N(C)CCCC[C@@H]1NC(=O)[C@H](C)NC(=O)[C@H]([C@@H](C)O)NC(=O)[C@H](CC(=O)N(C)C)NC(=O)[C@@H](NC(=O)CCOCCOCC[N+](C)(C)C)C(C)(C)SSC(C)(C)[C@@H](C(=O)N[C@@H](Cc2ccc(OCCOCCOCC[N+](C)(C)C)cc2)C(=O)N[C@@H](C)C(=O)NC2(C(=O)N[C@@H](CCCCN(C)C(C)=O)C(=O)N[C@@H](CC(N)=O)C(=O)N[C@@H](Cc3cccnc3)C(=O)N(C)CC(=O)N(C)C)CCOCC2)NC1=O [compound 557, cPEG3aCO-Pen(3)-N(N(Me)2)-T-A-K(NMeAc)-Pen(3)-APEG3F-A-THP-K(NMeAc)-N-3Pya-Sar-CON(Me)2] ({Me3N+(CH2)2O(CH2)2O(CH2)2CO}-[Pen]D(NMe2)TA[Lys(Me)](Ac)[Pen]Y(CH2CH2OCH2CH2OCH2CH2NMe3+)A[Thp][Lys(Me)](Ac)N[3Pal][Sar]-NMe2; disulfide 1-6)
EPSA [1]: 139 A^2 | IC50 [2]: > 16600 nM

CC(=O)NCCCC[C@@H]1NC(=O)[C@H](Cc2c[nH]c3c(C)cccc23)NC(=O)[C@H]([C@@H](C)O)NC(=O)[C@H](CC(N)=O)NC(=O)[C@@H](NC(=O)[C@@H](CCCNC(=N)N)NC(C)=O)C(C)(C)SSC(C)(C)[C@@H](C(=O)N[C@@H](Cc2ccc(OCCCCC[N+](C)(C)C)cc2)C(=O)N[C@@H](Cc2ccc3ccccc3c2)C(=O)NC2(C(=O)N[C@@H](CCCCNC(C)=O)C(=O)N[C@@H](CC(N)=O)C(=O)N[C@@H](Cc3cccnc3)C(=O)N(C)CC(N)=O)CCOCC2)NC1=O [compound 558, MeCO-r-Pen(3)-N-T-7MeW-K(Ac)-Pen(3)-TMAPF-2Nal-THP-K(Ac)-N-3Pya-Sar-CONH2] (Ac-[dR][Pen]NT[Trp(7-Me)]K(Ac)[Pen]Y(X3)[2Nal][Thp]K(Ac)N[3Pal][Sar]-NH2; disulfide 2-7)
EPSA [1]: 174 A^2 | IC50 [2]: 4.1 nM

CNC(=O)C[C@H](NC(=O)[C@H](CCCCN(C)C(C)=O)NC(=O)C1(NC(=O)[C@H](Cc2ccc3ccccc3c2)NC(=O)[C@H](Cc2ccc(OCCCCC[N+](C)(C)C)cc2)NC(=O)[C@H]2NC(=O)[C@H](CCCCN(C)C(C)=O)NC(=O)[C@H](Cc3c[nH]c4c(C)cccc34)NC(=O)[C@H]([C@@H](C)O)NC(=O)[C@H](CC(=O)N(C)C)NC(=O)[C@@H](NC(=O)CCOCCOCC[N+](C)(C)C)C(C)(C)SSC2(C)C)CCOCC1)C(=O)N[C@@H](Cc1cccnc1)C(=O)N(C)CC(=O)N(C)C [compound 560, cPEG3aCO-Pen(3)-N(N(Me)2)-T-7MeW-K(NMeAc)-Pen(3)-TMAPF-2Nal-THP-k(NMeAc)-N(NMe)-3Pya-Sar-CON(Me)2] ({Me3N+(CH2)2O(CH2)2O(CH2)2CO}-[Pen]D(NMe2)T[Trp(7-Me)][Lys(Me)](Ac)[Pen]Y(X3)[2Nal][Thp][Lys(Me)](Ac)D(NHMe)[3Pal][Sar]-NMe2; disulfide 1-6)
EPSA [1]: 154 A^2 | IC50 [2]: 3.4 nM
